Source: publication PMC8187357 (Communications Biology, 2021)
Where “and” joins values, the source holds several entries; their conditions need not be identical. Equal entries are not always repeated. Residues, ends and D or L forms follow the SMILES beside them.

Assays:
CT26 colon carcinoma [1] = test: CT26 model, survival in combination with cyclophosphamide; type: in vivo, mouse; parameters: key to Survival data: 0: Censored; Death or tumor volume more than 10% of body weight; conditions: Vehicle+CTX, individual animals
Method: (§1) Studies in syngeneic models including B16 melanoma metastasis model and CT26 colon carcinoma subcutaneous model were performed as described. For the Docetaxel combination experiment in CT26 model, indicated dosage of docetaxel (Source: Docetere® injection by Dr Reddy’s Laboratories) was dosed intraperitoneally to animals. For the CA-170 combination groups, CA-170 (10 mg/kg/day, oral) was dosed ~10 min after docetaxel. Animal grouping, treatment efficacy assessment and %TGI calculations were performed as mentioned above. For the CT26 experiment with cyclophosphamide, 100 mg/kg of cyclophosphamide was dosed once on day 5 intraperitoneally after cell implantation (first day of dosing for all other groups). Anti-PD1 antibody (Clone J43 from BioXcel) was dosed intraperitoneally at 100 µg/animal once every week.

PD-L1 = biological target: T1, PD-L1 (Mus musculus, UniProt Q9EP73); test: Rescue of PD-L1 mediated inhibition of proliferation, mouse splenocytes; type: cell-based; conditions: splenocyte-based assay
T1 construct: purchased R&D Systems 1019-B7-100
T1 sequence (Q9EP73 with tags, fused parts or gaps limits assumed): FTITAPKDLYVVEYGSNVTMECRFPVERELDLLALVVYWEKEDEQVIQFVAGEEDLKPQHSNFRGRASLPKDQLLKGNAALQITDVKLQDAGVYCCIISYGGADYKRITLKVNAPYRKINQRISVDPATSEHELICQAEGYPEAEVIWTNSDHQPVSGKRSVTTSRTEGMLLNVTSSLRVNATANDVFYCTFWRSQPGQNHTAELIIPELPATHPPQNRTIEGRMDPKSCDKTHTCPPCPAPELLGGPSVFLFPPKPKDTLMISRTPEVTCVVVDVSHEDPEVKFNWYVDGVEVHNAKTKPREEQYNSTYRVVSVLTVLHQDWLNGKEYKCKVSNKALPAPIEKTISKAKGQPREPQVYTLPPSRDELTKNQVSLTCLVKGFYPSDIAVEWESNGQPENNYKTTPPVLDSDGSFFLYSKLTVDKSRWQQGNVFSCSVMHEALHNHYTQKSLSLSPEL
Method: The ability of peptides, peptidomimetics, and small molecules were analyzed for their ability to rescue T-cell proliferation or IFN-γ release from the inhibitory activity of PD-L1 or PD-L2 in a splenocyte/PBMC-based functional assay as per the protocols reported in publication. […] For all in vitro assays, test agent stock was prepared in water and diluted further in the assay media to achieve test concentrations. Each experimental condition was carried out in triplicates. Percent rescue for a given test compound concentration was calculated by normalizing individual percent test agent proliferation or IFN-γ release values to percent anti-CD3 and anti-CD28 antibodies stimulated proliferation or IFN-γ release. EC50 values were derived by plotting transformed data into non-linear fit in sigmoidal dose–response curve using GraphPad Prism software (Version 7).

Pharmacokinetics in mice = type: in vivo, mouse; conditions: mouse, in vivo
Method: Animals in Group 1 were administered with 5% w/v dextrose in water and Group 2 were administered with corresponding formulation listed in the Supplementary Table 6 through oral routes. Blood samples (approximately 40 μl) were collected under light isoflurane anesthesia from submandibular at predose, 0.08 (IV), 0.25, 0.5, 1, 2, 4, 8, and 24 h using sparse sampling technique. Plasma samples were separated by centrifugation of whole blood and stored below −70 °C until bioanalysis. All samples were processed for analysis by protein precipitation and analyzed with fit-for-purpose LC–MS/MS method.

CT26 colon carcinoma [2] = test: CT26 model, combination with docetaxel; type: in vivo, mouse; conditions: for TGI: CT26 in Balb/c mice, 12 days; for Individual tumor volumes: individual animals
Method: as §1

Compound `O=P1(N(CCCl)CCCl)NCCCO1` (stereo not shown) [CTX] has a Survival data (CT26 colon carcinoma [1]; day 1 of treatment) of 0, a Survival data (CT26 colon carcinoma [1]; day 3 of treatment) of 0 and a Survival data (CT26 colon carcinoma [1]; day 6 of treatment) of 0. The Survival data (CT26 colon carcinoma [1]; day 8 of treatment) was 0, the Survival data (CT26 colon carcinoma [1]; day 10 of treatment) was 0 and the Survival data (CT26 colon carcinoma [1]; day 12 of treatment) was 1 and 0. The Survival data (CT26 colon carcinoma [1]; day 14 of treatment) was 1 and 0 and the Survival data (CT26 colon carcinoma [1]; day 15 of treatment) was 0.
In the case of `C[C@@H](O)[C@H](NC(=O)[C@H](CC(N)=O)NC(=O)[C@@H](N)CO)C(=O)O` [PM-116] (H-Ser-Asn-Thr-OH; N-terminus and C-terminus assumed), the EC50 (PD-L1) is reported as 0.006 µM.
Compound `C[C@@H](O)[C@@H]1NC(=O)[C@H](CC(N)=O)NC(=O)[C@H](CO)NC(=O)[C@H](Cc2ccccc2)NC(=O)[C@H](CO)NC(=O)[C@H](CCC(=O)O)NC(=O)[C@H](CO)NC1=O` [PM-823] (HELM PEPTIDE1{E.S.F.S.N.T.S}$PEPTIDE1,PEPTIDE1,1:R1-7:R2$$$V2.0) has an EC50 (PD-L1) of 0.055 µM, an AUC (Pharmacokinetics in mice; iv, 1 mg/kg) of 2.19 µg·h/mL and a clearance (Pharmacokinetics in mice; iv, 1 mg/kg) of 1.38 L/h/kg. The bioavailability (Pharmacokinetics in mice; po) was 6.8%, the “oral bioavailability (in words)” value (Pharmacokinetics in mice; po) was “not orally bioavailable” and the AUC (Pharmacokinetics in mice; po, 30 mg/kg) was 0.495 µg·h/mL. It also gave a Cmax (Pharmacokinetics in mice; po, 30 mg/kg) of 0.554 µg/mL.
For `CC(=O)O[C@@]12CO[C@@H]1C[C@H](O)[C@@]1(C)C(=O)[C@H](O)C3=C(C)[C@@H](OC(=O)[C@H](O)[C@@H](NC(=O)OC(C)(C)C)c4ccccc4)C[C@@](O)([C@@H](OC(=O)c4ccccc4)[C@H]21)C3(C)C` [docetaxel], the TGI (CT26 colon carcinoma [2]; single agent docetaxel 1 mg/kg) was 44%, the TGI (CT26 colon carcinoma [2]; single agent docetaxel 10 mg/kg) was 43% and the Individual tumor volumes (CT26 colon carcinoma [2]; Docetaxel 1mg/kg, day 1 of treatment) was 22.15 mm3 and 31.55 mm3 and 34.9 mm3 and 45.07 mm3 and 50.49 mm3 and 58.82 mm3 and 62.62 mm3 and 76.97 mm3 and 88.69 mm3. For the same compound, the Individual tumor volumes (CT26 colon carcinoma [2]; Docetaxel 1mg/kg, day 4 of treatment) was 46.4 mm3 and 28.72 mm3 and 78.5 mm3 and 62.65 mm3 and 97.03 mm3 and 124.03 mm3 and 118.17 mm3 and 67.74 mm3 and 149.61 mm3, the Individual tumor volumes (CT26 colon carcinoma [2]; Docetaxel 1mg/kg, day 6 of treatment) was 132.42 mm3 and 19.09 mm3 and 90.17 mm3 and 95.74 mm3 and 164.49 mm3 and 224.32 mm3 and 158.95 mm3 and 86.49 mm3 and 198.71 mm3 and the Individual tumor volumes (CT26 colon carcinoma [2]; Docetaxel 1mg/kg, day 8 of treatment) was 186.57 mm3 and 10.93 mm3 and 133.19 mm3 and 151.25 mm3 and 260.04 mm3 and 385.2 mm3 and 276.47 mm3 and 199.1 mm3 and 392.38 mm3. For the same compound, the Individual tumor volumes (CT26 colon carcinoma [2]; Docetaxel 1mg/kg, day 11 of treatment) was 263.17 mm3 and 22.61 mm3 and 143.19 mm3 and 316.97 mm3 and 451.22 mm3 and 764.37 mm3 and 562.88 mm3 and 301.78 mm3 and 690.4 mm3, the Individual tumor volumes (CT26 colon carcinoma [2]; Docetaxel 10mg/kg, day 1 of treatment) was 22.87 mm3 and 29.49 mm3 and 35.8 mm3 and 43.1 mm3 and 51.4 mm3 and 57.21 mm3 and 63.02 mm3 and 74.99 mm3 and 92.42 mm3 and the Individual tumor volumes (CT26 colon carcinoma [2]; Docetaxel 10mg/kg, day 4 of treatment) was 54.41 mm3 and 32.56 mm3 and 76.21 mm3 and 71.86 mm3 and 73.1 mm3 and 87.77 mm3 and 117.98 mm3 and 93.45 mm3 and 48.5 mm3. The Individual tumor volumes (CT26 colon carcinoma [2]; Docetaxel 10mg/kg, day 6 of treatment) was 109.48 mm3 and 42.16 mm3 and 129.37 mm3 and 103.08 mm3 and 111.56 mm3 and 155.23 mm3 and 165.2 mm3 and 163.17 mm3 and 79.31 mm3, the Individual tumor volumes (CT26 colon carcinoma [2]; Docetaxel 10mg/kg, day 8 of treatment) was 163.72 mm3 and 98.83 mm3 and 244.12 mm3 and 203.26 mm3 and 199.06 mm3 and 316.02 mm3 and 316.69 mm3 and 217.54 mm3 and 105.3 mm3 and the Individual tumor volumes (CT26 colon carcinoma [2]; Docetaxel 10mg/kg, day 11 of treatment) was 322.31 mm3 and 251.42 mm3 and 447.21 mm3 and 378.85 mm3 and 332.62 mm3 and 662.99 mm3 and 641.53 mm3 and 377.51 mm3 and 200.96 mm3.
